Test results: US20080032952A1, “Combination Therapies Employing Nicotinic Acid Derivatives or Fibric Acid Derivatives” (priority 2004, published 2008)

Tested on: patients who underwent percutaneous coronary intervention (PCI)
Assay type: in vivo
Description: Data collection and statistical analyses—Patients who received ≧1 dose of the study drug and underwent PCI were analyzed for all primary and secondary efficacy and safety end points. […] Statistical tests were 2-sided with an a level of 0.05 and employed the intent-to-treat principle. The Wilcoxon rank-sum test was used. Due to small sample sizes, categorical variables were compared using the Fisher's exact test with the exception of the ST-segment monitoring data, which utilized the Pearson's chi-square test. Statistical analyses were performed using SAS version 8.2 (SAS Institute, Cary, N.C.).

Cc1ncc(COP(=O)(O)O)c(C=O)c1O [P5P, pyridoxal 5′-phosphate] was tested, and the “median periprocedural CK-MB area under the curve (periprocedural infarct size)” value (10 mg/kg oral ≧4 hours before PCI, then 5 mg/kg twice daily, CK-MB over 24 hours, p=0.038 vs placebo) was 18.6 ng/mL and the “rate of post-PCI ischemia” value (continuous ST monitoring within 24 hours after PCI, p=0.78 vs placebo) was 14.7%.
